Publication PMC10599993, “The PTPN2/PTPN1 inhibitor ABBV-CLS-484 unleashes potent anti-tumour immunity” (Nature, 2023)

How the values were obtained:
Experiment in all cases: biochemical
Parameters in all cases: Kinase selectivity panel, IC50 of AC484 (Supplementary Table 1)
[1] = target: T1, Abl (Homo sapiens, UniProt P00519)
T1 construct: gene ABL1
Description: (§1) Wide-range phosphatase, kinase and preclinical safety pharmacology off-target activity screens were conducted at Eurofins (Extended Data Table 5 and Supplementary Tables 1 and 2). A small phosphatase panel was developed at AbbVie to assess IC50 values on select phosphatases. The following enzymes used in the phosphatase selectivity panel were purchased from Eurofins: PTPN1 (PTP1B; 14–621), PTPN2 (TC-PTP; 14–646), PTPN9 (14–592), SHP1 (14–591) and SHP2 (14–622). The catalytic activity of the phosphatase was monitored using the small-molecule substrate DiFMUP (ThermoFisher) in a fluorescence assay format. In brief, the phosphatase reactions were performed at room temperature in the following assay buffer: 50 mM HEPES, pH 7.2, 100 mM NaCl, 1 mM EDTA, 0.005% Tween-20 and 5 mM TCEP. Each phosphatase was incubated with increasing concentrations of AC484 for 5 min, after which the substrate DiFMUP was added and incubated at 25 °C for 30 min. The final concentration of the enzyme and substrate was maintained at 0.5 nM and 5 μM, respectively, in all the assays. The reaction was then quenched by the addition of a 100 μM solution of bpV(Phen) (Enzo Life Sciences). The fluorescence signal was monitored using an Envision microplate reader (Perkin-Elmer) using excitation and emission wavelengths of 340 nm and 450 nm, respectively. The dose–response curves for the inhibitors were analysed using normalized IC50 regression curve fitting with control-based normalization. Supplementary file 41586_2023_6575_MOESM3_ESM.xlsx: Supplementary Table 1 AC484 kinase selectivity screen.

[2] = target: Gsk3b (Homo sapiens, UniProt P49841)
Description: as §1

[3] = target: LTK (Homo sapiens, UniProt P29376)
Description: as §1

[4] = target: Nek2 (Homo sapiens, UniProt P51955)
Description: as §1

[5] = target: Plk4 (Homo sapiens, UniProt O00444)
Description: as §1

[6] = target: TNK2 (Homo sapiens, UniProt Q07912)
Description: as §1

[7] = target: Wee1 (Homo sapiens, UniProt P30291)
Description: as §1

Measured: IC50

Sequence of Wee1 (P30291 whole entry): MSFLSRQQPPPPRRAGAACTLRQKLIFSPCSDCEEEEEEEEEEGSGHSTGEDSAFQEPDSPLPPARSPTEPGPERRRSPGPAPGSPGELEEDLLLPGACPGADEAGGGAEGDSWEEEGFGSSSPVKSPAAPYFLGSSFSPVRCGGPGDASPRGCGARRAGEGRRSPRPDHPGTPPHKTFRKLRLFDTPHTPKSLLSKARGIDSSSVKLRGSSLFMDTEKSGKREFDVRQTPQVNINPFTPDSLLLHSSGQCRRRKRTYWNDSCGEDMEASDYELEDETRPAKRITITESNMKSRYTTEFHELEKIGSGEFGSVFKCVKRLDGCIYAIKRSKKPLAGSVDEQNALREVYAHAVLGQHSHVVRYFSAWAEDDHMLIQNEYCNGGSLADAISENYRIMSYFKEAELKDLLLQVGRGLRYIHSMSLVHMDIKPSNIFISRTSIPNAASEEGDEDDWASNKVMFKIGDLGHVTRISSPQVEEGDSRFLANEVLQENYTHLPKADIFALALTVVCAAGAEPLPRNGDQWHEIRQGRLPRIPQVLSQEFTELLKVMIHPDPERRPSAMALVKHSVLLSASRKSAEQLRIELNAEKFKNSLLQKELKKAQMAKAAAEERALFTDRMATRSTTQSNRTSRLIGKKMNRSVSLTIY
Sequence of Gsk3b (P49841 whole entry): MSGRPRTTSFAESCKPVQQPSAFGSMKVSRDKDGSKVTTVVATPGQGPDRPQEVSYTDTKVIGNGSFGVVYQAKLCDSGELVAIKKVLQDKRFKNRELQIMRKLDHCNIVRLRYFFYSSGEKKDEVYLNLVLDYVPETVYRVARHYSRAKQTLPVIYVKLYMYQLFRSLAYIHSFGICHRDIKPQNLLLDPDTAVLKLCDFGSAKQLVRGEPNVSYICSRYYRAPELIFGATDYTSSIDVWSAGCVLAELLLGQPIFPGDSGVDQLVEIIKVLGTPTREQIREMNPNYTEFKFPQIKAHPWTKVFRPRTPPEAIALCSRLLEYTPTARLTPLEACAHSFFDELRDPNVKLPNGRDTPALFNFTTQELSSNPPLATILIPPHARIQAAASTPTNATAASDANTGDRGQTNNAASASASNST
Sequence of Nek2 (P51955 whole entry): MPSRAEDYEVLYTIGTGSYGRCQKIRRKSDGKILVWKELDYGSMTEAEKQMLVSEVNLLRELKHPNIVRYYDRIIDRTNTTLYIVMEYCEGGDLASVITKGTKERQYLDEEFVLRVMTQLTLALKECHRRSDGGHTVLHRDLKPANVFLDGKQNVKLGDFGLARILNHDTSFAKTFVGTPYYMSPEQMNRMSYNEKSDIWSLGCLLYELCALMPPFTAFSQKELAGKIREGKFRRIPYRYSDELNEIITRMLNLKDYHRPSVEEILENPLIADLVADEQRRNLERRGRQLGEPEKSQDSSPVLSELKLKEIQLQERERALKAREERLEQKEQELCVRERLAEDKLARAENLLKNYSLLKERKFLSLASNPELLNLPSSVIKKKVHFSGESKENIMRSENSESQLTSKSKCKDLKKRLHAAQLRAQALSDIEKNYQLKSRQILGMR
Sequence of Plk4 (O00444 whole entry): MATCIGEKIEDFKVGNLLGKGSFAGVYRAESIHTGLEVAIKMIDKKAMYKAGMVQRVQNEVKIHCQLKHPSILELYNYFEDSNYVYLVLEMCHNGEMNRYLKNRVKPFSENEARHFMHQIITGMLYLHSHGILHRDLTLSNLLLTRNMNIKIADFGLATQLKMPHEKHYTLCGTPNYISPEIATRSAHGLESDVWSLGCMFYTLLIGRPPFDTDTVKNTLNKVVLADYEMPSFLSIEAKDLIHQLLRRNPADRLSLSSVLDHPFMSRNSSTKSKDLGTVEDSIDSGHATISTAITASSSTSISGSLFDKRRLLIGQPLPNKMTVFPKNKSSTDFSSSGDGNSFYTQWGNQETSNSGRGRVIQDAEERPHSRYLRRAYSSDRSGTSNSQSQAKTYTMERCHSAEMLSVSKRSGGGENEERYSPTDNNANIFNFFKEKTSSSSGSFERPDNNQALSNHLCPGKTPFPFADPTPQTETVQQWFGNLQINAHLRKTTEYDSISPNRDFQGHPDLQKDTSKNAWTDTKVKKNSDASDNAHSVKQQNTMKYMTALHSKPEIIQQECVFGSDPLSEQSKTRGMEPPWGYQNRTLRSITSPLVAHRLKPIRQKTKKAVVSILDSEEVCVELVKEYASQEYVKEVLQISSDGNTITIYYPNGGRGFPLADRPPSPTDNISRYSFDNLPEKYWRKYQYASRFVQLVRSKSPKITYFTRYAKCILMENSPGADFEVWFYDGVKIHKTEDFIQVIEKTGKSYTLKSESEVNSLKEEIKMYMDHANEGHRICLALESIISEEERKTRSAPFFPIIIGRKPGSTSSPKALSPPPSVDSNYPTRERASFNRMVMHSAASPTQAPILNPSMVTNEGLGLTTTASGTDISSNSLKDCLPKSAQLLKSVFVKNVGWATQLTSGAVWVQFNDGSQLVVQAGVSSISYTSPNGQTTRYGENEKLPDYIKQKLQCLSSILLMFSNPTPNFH
Sequence of TNK2 (Q07912 whole entry): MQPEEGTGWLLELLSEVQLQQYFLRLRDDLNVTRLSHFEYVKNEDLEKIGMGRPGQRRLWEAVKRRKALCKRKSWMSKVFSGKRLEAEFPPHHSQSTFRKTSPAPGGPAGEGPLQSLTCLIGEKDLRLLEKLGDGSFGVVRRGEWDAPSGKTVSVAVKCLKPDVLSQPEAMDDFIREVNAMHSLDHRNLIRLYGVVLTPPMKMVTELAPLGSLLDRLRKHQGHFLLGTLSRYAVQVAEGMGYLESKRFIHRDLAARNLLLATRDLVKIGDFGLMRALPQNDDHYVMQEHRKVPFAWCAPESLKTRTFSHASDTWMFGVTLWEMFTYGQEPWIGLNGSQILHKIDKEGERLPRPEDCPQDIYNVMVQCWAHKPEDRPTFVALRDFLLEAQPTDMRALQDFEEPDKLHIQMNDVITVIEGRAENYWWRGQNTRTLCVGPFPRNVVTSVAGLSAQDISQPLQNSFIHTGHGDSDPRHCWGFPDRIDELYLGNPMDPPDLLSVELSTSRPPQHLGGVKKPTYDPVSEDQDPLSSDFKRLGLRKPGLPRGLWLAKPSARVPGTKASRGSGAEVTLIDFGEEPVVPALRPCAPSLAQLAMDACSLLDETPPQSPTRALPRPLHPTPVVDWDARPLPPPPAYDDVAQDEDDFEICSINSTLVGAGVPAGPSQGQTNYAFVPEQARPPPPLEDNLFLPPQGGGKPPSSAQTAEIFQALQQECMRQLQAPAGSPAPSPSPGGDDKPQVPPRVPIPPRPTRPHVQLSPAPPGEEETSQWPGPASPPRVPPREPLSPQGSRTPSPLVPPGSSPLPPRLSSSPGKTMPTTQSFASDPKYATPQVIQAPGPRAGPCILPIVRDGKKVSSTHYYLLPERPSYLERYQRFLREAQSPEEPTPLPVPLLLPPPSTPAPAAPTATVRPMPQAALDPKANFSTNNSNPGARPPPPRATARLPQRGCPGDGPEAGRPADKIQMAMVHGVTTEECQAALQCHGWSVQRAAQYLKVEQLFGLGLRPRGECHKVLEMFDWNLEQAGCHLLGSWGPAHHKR
Sequence of LTK (P29376 whole entry): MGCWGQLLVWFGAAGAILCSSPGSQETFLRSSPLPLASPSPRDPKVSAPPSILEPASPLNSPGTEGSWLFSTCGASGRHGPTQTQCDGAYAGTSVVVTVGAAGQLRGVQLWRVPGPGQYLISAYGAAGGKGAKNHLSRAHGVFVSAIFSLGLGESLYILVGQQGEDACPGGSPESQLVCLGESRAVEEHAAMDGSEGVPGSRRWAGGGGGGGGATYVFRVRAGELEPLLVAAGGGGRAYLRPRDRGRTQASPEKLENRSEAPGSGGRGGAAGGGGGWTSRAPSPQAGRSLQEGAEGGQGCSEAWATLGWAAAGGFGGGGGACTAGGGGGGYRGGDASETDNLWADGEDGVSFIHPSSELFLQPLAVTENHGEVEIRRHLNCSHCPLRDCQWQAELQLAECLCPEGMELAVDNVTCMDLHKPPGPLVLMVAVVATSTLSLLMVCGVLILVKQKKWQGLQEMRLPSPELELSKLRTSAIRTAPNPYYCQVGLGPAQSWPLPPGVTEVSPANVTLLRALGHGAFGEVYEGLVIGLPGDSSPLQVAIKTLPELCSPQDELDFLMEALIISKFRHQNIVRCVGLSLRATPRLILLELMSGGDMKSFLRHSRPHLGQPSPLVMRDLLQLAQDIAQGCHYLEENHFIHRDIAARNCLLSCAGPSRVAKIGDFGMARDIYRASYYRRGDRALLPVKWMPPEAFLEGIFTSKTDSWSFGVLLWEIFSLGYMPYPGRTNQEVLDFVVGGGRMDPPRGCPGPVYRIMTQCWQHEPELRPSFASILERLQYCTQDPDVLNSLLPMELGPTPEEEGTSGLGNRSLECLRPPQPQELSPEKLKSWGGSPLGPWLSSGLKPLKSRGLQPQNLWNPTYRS

CC(C)CCN[C@@H]1CCc2cc(O)c(N3CC(=O)NS3(=O)=O)c(F)c2C1 [AC484, ABBV-CLS-484]
> 10 µM: all assays above
